The values below are quoted from earlier work in patent US6939987B2, “Method for producing Aspartame derivative, method for purifying the same, crystals thereof and uses of the same” (Ajinomoto Co., Inc., priority 1999, dated 2005).

Molecules are shown by their SMILES.

The conditions of the series: relative to sucrose; reported in International Patent Publication WO94/11391.

As to `COC(=O)[C@H](Cc1ccccc1)NC(=O)[C@H](CC(=O)O)NCCC(C)(C)C` [N-[N-(3,3-dimethylbutyl)-L-α-aspartyl]-L-phenylalanine 1-methyl ester], the sweetening potency is recorded as 10000 times that of sucrose.
